Measured values as given in US7319015B2, “Methods and compositions for using alveolar macrophage phospholipase A2” (The Regents of The University of Michigan, priority 2004, dated 2008).
“And” between values parts separate entries of the source, which are not always exact repeats. Equal values may be shown once. “Also recorded” adds a separate entry of the source. Read-outs that look alike come from different tables or passages of the source.

Experiments:
[1] = molecular target: T1, LPLA2 (Canis lupus familiaris, UniProt Q6XPZ3); assay: LPLA2 (transacylase/phospholipase A2) activity assay in MDCK cell homogenates with cationic amphiphilic drugs; format: biochemical; details: FIG. 1A; for inhibition of LPLA2 transacylase and phospholipase A2 activity (in words): enzyme assay for LPLA2 activity
T1 construct: endogenous in cells; host or cells: MDCK cell homogenate
T1 sequence (Q6XPZ3 32-408): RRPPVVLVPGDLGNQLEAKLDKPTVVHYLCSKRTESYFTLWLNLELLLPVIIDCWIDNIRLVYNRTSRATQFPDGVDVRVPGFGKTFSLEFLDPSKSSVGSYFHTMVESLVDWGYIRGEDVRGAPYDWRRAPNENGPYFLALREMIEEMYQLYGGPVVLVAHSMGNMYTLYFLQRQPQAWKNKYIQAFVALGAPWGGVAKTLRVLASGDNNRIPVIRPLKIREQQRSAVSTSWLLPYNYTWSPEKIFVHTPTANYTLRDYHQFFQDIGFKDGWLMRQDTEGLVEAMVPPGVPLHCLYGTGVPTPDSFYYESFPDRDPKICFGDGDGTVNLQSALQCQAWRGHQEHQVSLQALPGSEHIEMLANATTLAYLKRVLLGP
Protocol: (§1) Phospholipids, DOPC and PE, and N-acetylsphingosine (NAS) were used in the assay system as a donor and an acceptor, respectively, of an acyl group. The transacylase activity was determined by analysis of 1-O-acyl-N-acetylsphingosine formation rate. The reaction mixture consisted of 45 mM sodium citrate (pH 4.5), 10 μg/ml bovine serum albumin, 40 μM NAS incorporated into phospholipid liposomes (DOPC/PE/dicetyl phosphate/NAS (5:2:1:2 in molar ratio)) and soluble fraction (0.7-10 μg) in a total volume of 500 μl. The reaction was initiated by adding the soluble fraction, kept for 5-60 min at 37° C. and terminated by adding 3 ml of chloroform/methanol (2:1) plus 0.3 ml of 0.9% (w/v) NaCl. The mixture was centrifuged for 5 min at room temperature. The resultant lower layer was transferred into another glass tube and dried down under a stream of nitrogen gas. The dried lipid dissolved in 40 μl of chloroform/methanol (2:1) was applied on an HPTLC plate and developed in a solvent system consisting of chloroform/acetic acid (9:1). The plated was dried down and soaked in 8% (w/v) CuSO4, 5H2O, 6.8% (v/v) H3PO4, 32% (v/v) methanol. The uniformly wet plate was briefly dried down by a hair dryer and charred for 15 min in a 150° C. oven. The plate was scanned and the amount of the reaction products was estimated by NIH-image 1.62.
Res., 35:1232-1240, 1994]. PDMP and its related homologs contain a hydrophilic domain with a substituted nitrogen and a hydrophobic aromatic group, functional groups that are typical of CADs in general.

[2] = molecular target: T2, 1-O-acylceramide synthase (LPLA2) (Bos taurus, UniProt Q8WMP9); details: initial characterization of the enzyme, cited from earlier work
T2 sequence (Q8WMP9 30-407): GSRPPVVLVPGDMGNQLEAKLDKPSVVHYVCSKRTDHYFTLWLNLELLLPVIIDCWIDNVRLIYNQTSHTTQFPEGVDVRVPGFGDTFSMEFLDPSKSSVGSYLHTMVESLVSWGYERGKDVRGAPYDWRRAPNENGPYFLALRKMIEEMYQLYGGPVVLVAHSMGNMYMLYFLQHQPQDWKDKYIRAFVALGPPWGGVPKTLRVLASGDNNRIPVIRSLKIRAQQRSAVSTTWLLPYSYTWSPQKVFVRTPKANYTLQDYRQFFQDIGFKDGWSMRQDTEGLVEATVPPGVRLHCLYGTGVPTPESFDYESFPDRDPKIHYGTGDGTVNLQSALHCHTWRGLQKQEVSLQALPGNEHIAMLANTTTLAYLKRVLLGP

[3] = system: surfactant phospholipid catabolism; details: rats treated with MJ33 (Fisher et al. 2001); cited from earlier work
[4] = system: dipalmitoyl-phosphatidylcholine degradation; details: murine lung, previously demonstrated; cited from earlier work
[5] = molecular target: c-myc-tagged mouse LPLA2 (Mus musculus, UniProt Q8VEB4); details: soluble fraction of LPLA2 transfected COS 7 cells 2.26 μg protein/ml, citrate buffer pH 4.5, 40 μM NAS
Protocol: as §1, with “The uniformly wet plate was briefly dried down by a hair dryer and charred for 15 min in a 150° C. oven. The plate was scanned and the amount of the reaction products was estimated by NIH-image 1.62.” left out
(§2) In the studies the effect of MJ33 on LPLA2 transacylation activity in rat alveolar macrophages and c-myc-tagged mouse LPLA2 transfected COS 7 cells was also determined. […] The enzyme activity was determined as described in the Example 1.

[6] = molecular target: LPLA2 (Rattus norvegicus, UniProt Q675A5); details: rat AM soluble fraction 2.42 μg protein/ml, citrate buffer pH 4.5, 40 μM NAS, different concentrations of MJ33
Protocol: as §1, with “The uniformly wet plate was briefly dried down by a hair dryer and charred for 15 min in a 150° C. oven. The plate was scanned and the amount of the reaction products was estimated by NIH-image 1.62.” left out
as §2

[7] = system: MDCK cells; details: MDCK cells treated at the IC50 for transacylase inhibition, 7 days, FIG. 2
[8] = system: CHO cells; details: CHO cells (Rosenwald and Pagano 1994); cited from earlier work
[9] = system: MDCK cells

Chain of LPLA2 (Rattus norvegicus, UniProt Q675A5) (Q675A5 34-413): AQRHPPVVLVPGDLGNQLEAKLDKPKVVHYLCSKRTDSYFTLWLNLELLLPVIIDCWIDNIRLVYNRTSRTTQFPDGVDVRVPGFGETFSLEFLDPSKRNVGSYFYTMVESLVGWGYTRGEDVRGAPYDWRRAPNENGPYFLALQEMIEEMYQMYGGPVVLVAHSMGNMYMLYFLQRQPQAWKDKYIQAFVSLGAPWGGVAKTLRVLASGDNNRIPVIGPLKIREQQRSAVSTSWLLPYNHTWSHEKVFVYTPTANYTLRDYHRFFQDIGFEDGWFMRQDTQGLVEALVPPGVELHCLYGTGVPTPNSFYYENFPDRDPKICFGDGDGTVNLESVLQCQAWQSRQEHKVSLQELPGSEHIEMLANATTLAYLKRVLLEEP
Chain of c-myc-tagged mouse LPLA2 (Q8VEB4 34-412): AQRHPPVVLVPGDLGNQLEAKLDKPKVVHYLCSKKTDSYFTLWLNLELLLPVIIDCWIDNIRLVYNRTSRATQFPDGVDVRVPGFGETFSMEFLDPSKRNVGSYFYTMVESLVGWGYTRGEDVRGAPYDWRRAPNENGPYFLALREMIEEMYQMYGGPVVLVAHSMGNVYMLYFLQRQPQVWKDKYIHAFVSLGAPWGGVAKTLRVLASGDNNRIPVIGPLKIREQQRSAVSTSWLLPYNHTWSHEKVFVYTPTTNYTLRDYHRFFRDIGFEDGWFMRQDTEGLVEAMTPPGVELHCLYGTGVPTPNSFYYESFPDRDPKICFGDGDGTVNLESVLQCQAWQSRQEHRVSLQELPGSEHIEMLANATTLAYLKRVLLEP

SMILES: CCCCc1oc2ccccc2c1C(=O)c1cc(I)c(OCCN(CC)CC)c(I)c1 [Amiodarone, amiodarone]
- inhibition of LPLA2 transacylase and phospholipase A2 activity (in words) [1]: comparable to but greater than PDMP

SMILES: CCCCC/C=C\C/C=C\C/C=C\C/C=C\CCCC(=O)C(F)(F)F [nonadecyltetraenyl trifluoromethyl ketone]
- inhibition of enzyme activity [2]: insensitive; also recorded: did not inhibit

SMILES: CCCCCCCCCCCCCCCCOCC(COCC(F)(F)F)OP(=O)(O)OC (centres unmarked) [MJ33]
- inhibition of surfactant phospholipid catabolism [3]: 40 to 50%
- block of dipalmitoyl-phosphatidylcholine degradation [4]: block the majority
- inhibition of transacylase activity [5]: comparable response
- inhibition of transacylase activity [6]: concentration dependent inhibition

SMILES: CCCCCCCCCC(=O)N[C@H](CN1CCOCC1)[C@H](O)c1ccccc1 [PDMP, D-threo-1phenyl-2-decanoylamino-3-morphilino-propanol]
- IC50 ([1]; enzyme assay for LPLA2 (transacylase) activity, read-out: IC50 / half maximal inhibition of LPLA2 activity): 30 µM and 50 µM
- inhibition of LPLA2 transacylase and phospholipase A2 activity (in words) [1]: potently inhibited
- lysosomal phospholipid inclusions by electron microscopy [7]: obvious lysosomal phospholipid inclusions
- induction of lysosomal lamellar inclusions [8]: induced lysosomal lamellar inclusions
- total phospholipid content ([9]; MDCK cells incubated for up to 7 days, 15 μM, FIG. 1B): Modest, but significant increases
- content of phosphatidylethanolamine and phosphatidylcholine ([9]; MDCK cells, time-dependent changes, FIG. 1C/1D): increased

SMILES: O=C1O/C(=C/Br)CCC1c1cccc2ccccc12 (centres unmarked) [bromoenollactone]
- inhibition of enzyme activity [2]: did not inhibit
- inhibition of enzyme activity ([2]; listed as bromoenol lactone): insensitive
